Molecules are shown by their SMILES.

This assay deals with T1, Cathepsin K (Homo sapiens, UniProt P43235).
T1 sequence (P43235 whole entry): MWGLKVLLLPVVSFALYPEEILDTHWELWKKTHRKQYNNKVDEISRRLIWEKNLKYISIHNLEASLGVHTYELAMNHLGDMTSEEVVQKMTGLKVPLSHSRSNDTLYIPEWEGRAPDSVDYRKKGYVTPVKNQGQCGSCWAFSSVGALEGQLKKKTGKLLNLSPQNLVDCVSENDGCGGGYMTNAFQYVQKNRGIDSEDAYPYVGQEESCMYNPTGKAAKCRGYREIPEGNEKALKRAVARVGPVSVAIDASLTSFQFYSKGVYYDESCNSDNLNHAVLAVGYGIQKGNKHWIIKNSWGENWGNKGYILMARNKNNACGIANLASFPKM
Put plainly: Inhibitory activity against human cysteine protease, cathepsin K.
`CC(C)C[C@H](NC(=O)c1ccc(F)c(F)c1)C(=O)NC1COCC1=O` (some centres undefined) registered a Ki of 820 nM.

Take `CC(C)C[C@H](NC(=O)c1cc2ccccc2s1)C(=O)NC1COCC1=O` (some centres undefined): affinity was put at a Ki of 11 nM.

The compound `CC(C)[C@H](NC(=O)c1cc2ccccc2s1)C(=O)NC1COCC1=O` (some centres undefined) came in with a Ki above 10000 nM.

For `CC(C)C[C@H](NC(=O)c1cc2ccccc2o1)C(=O)NC1COCC1=O` (some centres undefined), the Ki was 53 nM.

The compound `O=C(N[C@@H](Cn1ccnc1)C(=O)NC1COCC1=O)c1cc2ccccc2s1` (some centres undefined) returned a Ki above 10000 nM.

Turning to `COCC(=O)[C@H](C)NC(=O)[C@H](CC(C)C)NC(=O)OCc1ccccc1`, the Ki was determined as 60 nM.

For `O=C(CNC(=O)c1cc2ccccc2s1)NC1COCC1=O` (centres undefined), the inhibitory constant (Ki) is above 10000 nM.

Consider `NC(=O)CC[C@H](NC(=O)c1cc2ccccc2s1)C(=O)NC1COCC1=O` (some centres undefined), for which the inhibition constant Ki was above 10000 nM.

In turn, `NCCCC[C@H](NC(=O)c1cc2ccccc2s1)C(=O)NC1COCC1=O` (some centres undefined) gave an inhibition constant (Ki) above 10000 nM.

`O=C(O)CC[C@H](NC(=O)c1cc2ccccc2s1)C(=O)NC1COCC1=O` (some centres undefined) registered a Ki above 10000 nM.

Regarding `CC(C)C[C@H](NC(=O)c1ccccc1)C(=O)NC1COCC1=O` (some centres undefined), the affinity, expressed as Ki, was 180 nM.

For the compound `CC(C)C[C@H](NC(=O)c1ccc(-c2ccccc2)cc1)C(=O)NC1COCC1=O` (some centres undefined), the affinity corresponds to a Ki of 19 nM.

In turn, `CC(C)C[C@H](NC(=O)c1ccc2ccccc2c1)C(=O)NC1COCC1=O` (some centres undefined) had a Ki of 61 nM.

Take `CC(C)C[C@H](NC(=O)c1ccccn1)C(=O)NC1COCC1=O` (some centres undefined): the Ki is 420 nM.

Compound `CC(O)[C@H](NC(=O)c1cc2ccccc2s1)C(=O)NC1COCC1=O` (some centres undefined) had a Ki above 10000 nM.

The compound `CC(C)C[C@H](NC(=O)c1ccc(S(C)(=O)=O)cc1)C(=O)NC1COCC1=O` (some centres undefined) returned a Ki of 710 nM.

In the case of `CC(C)C[C@H](NC(=O)c1ccc(C(C)C)cc1)C(=O)NC1COCC1=O` (some centres undefined), the Ki was found to be 64 nM.

Turning to `O=C(N[C@@H](Cc1ccccc1)C(=O)NC1COCC1=O)c1cc2ccccc2s1` (some centres undefined), the Ki is above 10000 nM.

Take `CC(C)C[C@H](NC(=O)c1ccc(C(C)(C)C)cc1)C(=O)NC1COCC1=O` (some centres undefined): the Ki was found to be 15 nM.

Compound `CC(=O)N[C@@H](CC(C)C)C(=O)NC1COCC1=O` (some centres undefined) had a Ki above 1000 nM.

In turn, `CC(C)C[C@H](NC(=O)c1cccs1)C(=O)NC1COCC1=O` (some centres undefined) returned a Ki of 640 nM.

The compound `O=C(N[C@@H](CC1CCCCC1)C(=O)NC1COCC1=O)c1cc2ccccc2s1` (some centres undefined) came in with a Ki above 10000 nM.

`C[C@H](NC(=O)c1cc2ccccc2s1)C(=O)NC1COCC1=O` (some centres undefined) displayed a Ki above 10000 nM.

For `CC(C)C[C@H](NC(=O)C1CCCCC1)C(=O)NC1COCC1=O` (some centres undefined), the inhibition constant Ki was above 1000 nM.

As for `CC(C)C[C@H](NC(=O)OCc1ccccc1)C(=O)NC1COCC1=O` (some centres undefined), the Ki was 140 nM.

For `CC(C)C[C@H](NC(=O)c1ccc2cc[nH]c2c1)C(=O)NC1COCC1=O` (some centres undefined), the Ki stood at 38 nM.

With `CCC[C@H](NC(=O)c1cc2ccccc2s1)C(=O)NC1COCC1=O` (some centres undefined), the Ki was determined as 190 nM.

In the case of `CC(C)C[C@H](NC(=O)c1cccc([N+](=O)[O-])c1)C(=O)NC1COCC1=O` (some centres undefined), the inhibition constant (Ki) is above 1000 nM.

Consider `CC(C)C[C@H](NC(=O)c1ccc2ccccc2n1)C(=O)NC1COCC1=O` (some centres undefined), for which the inhibition constant (Ki) stood at 44 nM.

As usually defined, the Ki is the dissociation constant of the complex between target and ligand, obtained from inhibition or displacement. Low readings indicate a stronger hold on the target, high ones a looser hold on the target.

Source of the values: ChEMBL document CHEMBL1133782, “Solid-phase synthesis of cyclic alkoxyketones, inhibitors of the cysteine protease cathepsin K” (Bioorg Med Chem Lett, 2001).
